Measured values from patent publication EP1769804B1, “hPTH(1-34) for use in preventing or reducing the incidence or severity of vertebral and / or non vertebral fracture in a male human” (priority 1998, dated 2012).

Key:
[1] = test system: ovariectomized cynomolgus monkeys; settings: cynomolgus monkey, in vivo
Procedure: The live phase of the study used feral, adult (closed growth plates) cynomolgus primates (Macaca fascicularis), weighing 2.77±0.03 kg (mean ± standard error of the mean [SEM]). Monkeys were held in quarantine for 3 months, then started on a diet containing 0.3% calcium, 0.3% phosphate, and 250 IU vitamin D3/100 g diet, and given fluoridated water (1 ppm fluoride) ad libitum. The calcium content corresponded to 1734 mg calcium/2000 calories. After 1 month on the diet, animals were sorted into groups of 21 or 22, sham operated or ovariectomized. Once daily subcutaneous injections of vehicle (sham and ovariectomized controls) or rhPTH(1-34), at 1 µg/kg (PTH1) or 5 µg/kg (PTH5), were started 24 hours after ovariectomy. Animals were treated for either 18 months (PTH1 and PTHS), or for 12 months followed by withdrawal of treatment (PTH1-W and PTH5-W).

[2] = cynomolgus monkey, in vivo
Procedure: Serum and urinary samples were taken 24 hours after vehicle or rhPTH(1-34) injection at 3-month intervals. A sparse sampling design of 5 monkeys in each rhPTH(1-34)-treated group was used for pharmacokinetics, with sampling (spanning 0 to 240 minutes each time) at baseline, 7, 11, and 17 months.

[3] = test system: L-5 vertebra from cynomolgus monkeys; assay: QCT and 3D finite element modeling of L-5 vertebra; format: in vivo; settings: for low BMD, percentage of L5 vertebral volume: 0-300 mg/cc; for low BMD, percentage of L5 vertebral volume / medium BMD, percentage of L5 vertebral volume / high BMD, percentage of L5 vertebral volume / cortical BMD, percentage of L5 vertebral volume: mean±SEM; for medium BMD, percentage of L5 vertebral volume: 300-700 mg/cc; for high BMD, percentage of L5 vertebral volume: 700-1000 mg/cc; for cortical BMD, percentage of L5 vertebral volume: >1000 mg/cc; for vertebral effective strain: finite element model, distributed load of 100 N
Procedure: These studies determined 3D finite element modeling data on vertebra from monkeys of the study dosed with PTH for 18 months. Excised L-5 vertebra in 50% ethanol/saline from the ovariectomized (n=7) and PTH (n=7) groups were serially scanned in 500 µm steps by quantitative computed tomography (QCT, Norland, Ft. Atkinson, WI), using 70x70 µm pixels. Each of the 500 µm cross-sections was analyzed for volumetric bone mineral density (BMD, mg/cc), bone mineral content (BMC, mg), cross-sectional area (X-Area), cancellous bone volume (BV/TV), trabecular thickness (Tb.Th), and connectivity (node density, strut analysis). Pixels in each serial scan were averaged to create 490x490x500 µm voxels. The serial scans were then stacked and a triangular surface mesh generated for each bone using the "marching cubes" algorithm (see e.g. Lorensen and Cline 1987 "Marching cubes, a high resolution 3D surface construction algorithm." Computer Graphics 21, 163-169). A smoothed version of each surface mesh was then used to generate a tetrahedral mesh for 3D finite-element modeling.
Young's modulus for each tetrahedral element was derived from the original voxel densities and material properties from a beam of cortical bone milled from the femoral diaphysis of the monkeys. Each tetrahedral mesh was rotated so that the bottom surface of each vertebra was aligned with a plane. Linear elastic stress analysis was then performed for each L-5 model in which a distributed load of 100 N was applied to the top surface of the centrum, perpendicular to the bottom plane while the bottom surface was fixed in the direction of loading. The resulting axial strain contours were evaluated, as were the BMD distributions, and compared between PTH and ovariectomized. At this resolution, the density of each voxel is dependent on the extent to which each voxel is filled with bone as opposed to soft tissue.

[4] = PTH-W, after withdrawal of PTH for 6 months
[5] = PTH for 18 months compared to ovariectomized

For teriparatide [rhPTH(1-34)], the “sustained hypercalcemia or kidney pathology” value [1] was “no evidence of sustained hypercalcemia or kidney pathology”, the pharmacokinetic measures [2] was “did not change with time” and the “low BMD, percentage of L5 vertebral volume” value ([3]; PTH for 18 months) was 17.7±1.6 %. The “low BMD, percentage of L5 vertebral volume” value [3, 4] was 22.4±1.3 %, the “medium BMD, percentage of L5 vertebral volume” value ([3]; PTH for 18 months) was 58.9±1.9 % and the “medium BMD, percentage of L5 vertebral volume” value [3, 4] was 49.7±1.2%. The “high BMD, percentage of L5 vertebral volume” value ([3]; PTH for 18 months) was 22.8±2.7%, the “high BMD, percentage of L5 vertebral volume” value [3, 4] was 27.0±1.6 % and the “cortical BMD, percentage of L5 vertebral volume” value ([3]; PTH for 18 months) was 0.6±0.3%. The “cortical BMD, percentage of L5 vertebral volume” value [3, 4] was 0.8±0.2%, the “BMC at the midlevel of the L5 vertebra” value ([3]; PTH for 18 months) was 47.4 ± 1.5 mg and the “greater Tb.N, centrum” value [3, 5] was 37%. For the same substance, the “greater node density (node/tissue volume)” value [3, 5] was 140%, the greater node-to-node struts [3, 5] was 286% and the “increase in BMC, middle 500 µm slice of L-5” value [3, 5] was 27%. The “increase in BMD, middle 500 µm slice of L-5” value [3, 5] was 21%, the “increase in BV/TV, centrum” value [3, 5] was 73% and the “increase in Tb.Th, centrum” value [3, 5] was 30%. The “reduction of average mechanical strain in the vertebra” value ([3]; PTH treatment, vs OVX) was 36%, the “BMC at the midlevel of the L5 vertebra” value [3, 4] was 44.2 ± 1.2 mg and the “average mechanical strain in the vertebra below OVX” value ([3]; after withdrawal of PTH) was 23%. For the same substance, the vertebral effective strain ([3]; PTH for 18 months) was 447±36 ustrain and the vertebral effective strain [3, 4] was 539±34 ustrain.
